Consider ten compounds from ChEMBL document CHEMBL3044854, “Synthesis and biological evaluation of diamide derivatives of (S)-BINOL and biphenyl as potential anti-inflammatory/anti-arthritic agents” (2013).

Molecules are shown by their SMILES.

Assay [1] is described as follows: Anti-inflammatory activity in Homo sapiens (human) RBCs assessed as prevention of hemolysis at 50 ug/mL after 30 min by UV-Vis spectrophotometric analysis relative to control. The class given is functional, Erythrocyte.
Assay [2] in a line: Anti-inflammatory activity in Homo sapiens (human) RBCs assessed as prevention of hemolysis at 10 ug/mL after 30 min by UV-Vis spectrophotometric analysis relative to control. The assay is classed as functional, Erythrocyte.
A short description of assay [3]: In vitro antiarthritic activity assessed as inhibition of bovine serum albumin denaturation after 20 min by UV-Visible spectrophotometric analysis. The assay is classed as functional.
Assay [4] is described as follows: In vitro antiarthritic activity assessed as inhibition of bovine serum albumin denaturation at 800 ug/mL after 20 min by UV-Visible spectrophotometric analysis relative to control. The assay is classed as functional.
Assay [5] can be described thus: In vitro antiarthritic activity assessed as inhibition of bovine serum albumin denaturation at 400 ug/mL after 20 min by UV-Visible spectrophotometric analysis relative to control. The class given is functional.
Assay [6] can be described thus: In vitro antiarthritic activity assessed as inhibition of bovine serum albumin denaturation at 200 ug/mL after 20 min by UV-Visible spectrophotometric analysis relative to control. The class given is functional.
A short description of assay [7]: In vitro antiarthritic activity assessed as inhibition of bovine serum albumin denaturation at 100 ug/mL after 20 min by UV-Visible spectrophotometric analysis relative to control. The assay is classed as functional.
Assay [8] is described as follows: In vitro antiarthritic activity assessed as inhibition of bovine serum albumin denaturation at 50 ug/mL after 20 min by UV-Visible spectrophotometric analysis relative to control. The class given is functional.
The subject of assay [9] is Erythrocyte. The assay is described as follows: Anti-inflammatory activity in Homo sapiens (human) RBCs assessed as prevention of hemolysis after 30 min by UV-Vis spectrophotometric analysis. The class given is functional, cell-based.
Assay [10] can be described thus: Anti-inflammatory activity in Homo sapiens (human) RBCs assessed as prevention of hemolysis at 200 ug/mL after 30 min by UV-Vis spectrophotometric analysis relative to control. The assay is classed as functional, Erythrocyte.
The nature of assay [11]: Anti-inflammatory activity in Homo sapiens (human) RBCs assessed as prevention of hemolysis at 100 ug/mL after 30 min by UV-Vis spectrophotometric analysis relative to control. The assay is classed as functional, Erythrocyte.

What is called inhibition is the change of the read-out against control, counted positive when it falls.

Consider `O=C(Cn1cnnn1)NCCSCCOc1ccccc1-c1ccccc1OCCSCCNC(=O)Cn1cnnn1`, for which the Activity in [1] was 63.3%; in assay [2] it was 54%; in [10], 89.4%; in assay [11], 75.3%. Moreover, the inhibition result in [3] was “Dose-dependent effect”; in assay [4], 91.9%; in [5], 76.3%; in assay [6], 65.1%; in assay [7], 42.2%; in [8], 21.6%. In addition, the inhibition entry in assay [9] was “Dose-dependent effect”.

Regarding `O=C(NCCSCCOc1ccccc1-c1ccccc1OCCSCCNC(=O)c1ccco1)c1ccco1`, the Activity in assay [1] is reported as 62.9%; in assay [2], 55.2%; in [10] it was 94.1%; in [11], 84.7%. The inhibition entry was “Dose-dependent effect” in assay [3]; 97.2% in [4]; 83.1% in assay [5]; 68.8% in [6]; 46.6% in assay [7]; 25.7% in assay [8]. In addition, the inhibition result in [9] is “Dose-dependent effect”.

As for `O=C(O)Cc1ccccc1Nc1c(Cl)cccc1Cl`, the inhibition in assay [4] was 76.7%; in [5] it was 21.6%; in assay [6] it was 15.2%; in assay [7] it was 10.9%; in assay [8] it was 5.6%.

`O=C(NCCSCCOc1ccc2ccccc2c1-c1c(OCCSCCNC(=O)c2ccco2)ccc2ccccc12)c1ccco1`: the Activity in assay [1] is 65.5%; in [2] it was 56.5%; in assay [10] it was 96.2%; in [11] it was 88.9%. The inhibition result was “Dose-dependent effect” in assay [3]; 98.7% in assay [4]; 87.8% in assay [5]; 71.5% in [6]; 50.8% in assay [7]; 29.5% in [8]. In [9], the inhibition entry was “Dose-dependent effect”.

Consider `O=C(Cc1cccs1)NCCSCCOc1ccc2ccccc2c1-c1c(OCCSCCNC(=O)Cc2cccs2)ccc2ccccc12`, for which the Activity amounted to 61.7% in [1], 50.2% in assay [2], 86% in assay [10] and 72.8% in [11]. Also, the inhibition entry in assay [3] is “Dose-dependent effect”; in assay [4], 87.4%; in [5], 73.3%; in assay [6], 59.1%; in assay [7], 42.2%; in assay [8], 23.6%. Moreover, in assay [9], the inhibition result is “Dose-dependent effect”.

Take `O=C(Cc1cccs1)NCCSCCOc1ccccc1-c1ccccc1OCCSCCNC(=O)Cc1cccs1`: the Activity amounted to 58.6% in [1], 47.3% in assay [2], 83.3% in assay [10] and 67.2% in assay [11]. Further, the inhibition entry is “Dose-dependent effect” in [3]; 84.8% in assay [4]; 69.6% in assay [5]; 41.1% in assay [6]; 34.9% in [7]; 28.3% in assay [8]. The inhibition entry in assay [9] was “Dose-dependent effect”.

As for `O=C(NCCSCCOc1ccccc1-c1ccccc1OCCSCCNC(=O)c1ccccc1)c1ccccc1`, the Activity in assay [1] turned out to be 49%; in assay [2] it was 35.7%; in assay [10], 77.5%; in [11], 60.7%. The inhibition result was “Dose-dependent effect” in assay [3]; 81.8% in assay [4]; 67.8% in assay [5]; 53% in [6]; 38.2% in [7]; 15.8% in [8]. In addition, the inhibition result in [9] was “Dose-dependent effect”.

On to `O=C(Cn1cnnn1)NCCSCCOc1ccc2ccccc2c1-c1c(OCCSCCNC(=O)Cn2cnnn2)ccc2ccccc12`, for which the Activity in assay [1] was determined as 69.7%; in assay [2] it was 61.9%; in assay [10], 91.6%; in [11] it was 82.5%. Further, the inhibition result in [3] is “Dose-dependent effect”; in assay [4], 94.2%; in assay [5], 74.1%; in assay [6] it was 67.1%; in [7] it was 39.6%; in [8] it was 19.6%. Further, the inhibition result in [9] is “Dose-dependent effect”.

For `O=C(NCCSCCOc1ccc2ccccc2c1-c1c(OCCSCCNC(=O)c2ccccc2)ccc2ccccc12)c1ccccc1`, the Activity in assay [1] was 51.4%; in assay [2], 34.5%; in assay [10] it was 79.4%; in assay [11], 63.6%. Further, the inhibition entry was “Dose-dependent effect” in assay [3]; 82.7% in assay [4]; 65.8% in assay [5]; 52.3% in assay [6]; 30.3% in assay [7]; 19.5% in assay [8]. In addition, in [9], the inhibition result was “Dose-dependent effect”.

Turning to `C[C@]12C=CC(=O)C=C1CC[C@@H]1[C@@H]2[C@@H](O)C[C@@]2(C)[C@H]1CC[C@]2(O)C(=O)CO` [PREDNISOLONE], the Activity in [1] stood at 57.9%; in assay [2], 46%; in [10] it was 91%; in assay [11] it was 84.8%.
